# Results taken from the Kinase Knowledgebase extract (Sharma et al. 2016).
# Target: CDK2 (human) (UniProt P24941)
# Assay: Enzyme Assay
row,IC50 [µM],SMILES
1,≤ 1,O=C(Nc1ccc(-n2cncn2)cc1)c1ccc(C(=O)NC2CCCCC2)o1
2,≥ 40,COc1ccc(NC(=O)c2ccc(C(=O)Nc3ccc4c(cnn4C)c3)s2)c(C)c1
3,≥ 40,O=C(Nc1ccc(-n2cncn2)cc1)c1ccc(C(=O)N2CCN(C3CCCC3)CC2)s1
4,≥ 40,COc1cccc(NC(=O)c2ccc(C(=O)Nc3ccc(-n4cncn4)cc3)s2)c1
5,≥ 40,O=C(NCCc1ccccn1)c1ccc(C(=O)Nc2ccc(-n3cncn3)cc2)s1
6,≥ 40,Cn1nc(-c2cccs2)cc1NC(=O)c1ccc(C(=O)Nc2ccc(-n3cncn3)cc2)s1

# The next lines start with the compound.
row,SMILES,IC50 [µM]
1,O=C(Nc1ccc(-n2cncn2)c(F)c1)c1ccc(C(=O)Nc2ccccc2-n2cccn2)s1,≥ 40
2,CN(Cc1ccccc1)C(=O)c1ccc(C(=O)Nc2ccc(-n3cncn3)cc2)s1,≥ 40
3,CN(C(=O)c1ccc(C(=O)Nc2ccc(-n3cncn3)c(F)c2)o1)C1CCCCC1,≥ 40
4,O=C(Nc1ccc(-n2cncn2)cc1)c1ccc(C(=O)Nc2cccc(Cl)c2)s1,1 to 40
5,COC(=O)c1cc(OC)ccc1NC(=O)c1ccc(C(=O)Nc2ccc(-n3cncn3)cc2)s1,1 to 40
6,Cc1cc(NCCN(C)C)ccc1NC(=O)c1ccc(C(=O)Nc2ccc(-n3cncn3)cc2)s1,1 to 40
7,C[C@H](O)CNC(=O)c1ccc(C(=O)Nc2ccc(-n3cncn3)cc2)s1,≥ 40
8,O=C(Nc1ccc(Cl)cc1)c1ccc(C(=O)Nc2ccc(-n3cncn3)cc2)s1,1 to 40
9,COc1ccc(C(=O)Nc2ccc(C(=O)N3CCC(c4ccncc4)C3)s2)c(C)c1 (stereo not drawn),≥ 40
10,COc1ccc(NC(=O)c2ccc(C(=O)Nc3ccc(-n4cncn4)cc3)s2)cc1O,≥ 40
11,COc1ccc(NC(=O)c2ccc(C(=O)Nc3ccc(-n4cccn4)cc3)s2)c(C)c1,≥ 40
12,Cc1cnc(NC(=O)c2ccc(C(=O)Nc3ccc(-n4cncn4)cc3)s2)s1,≥ 40
